Among the data in patent US10172957B2, “Acid-labile lipophilic prodrugs of cancer chemotherapeutic agents” (priority 2011, dated 2019) are IC50 and MTD values, retold here.

A word on the IC50: it is the concentration needed to halve the response being measured. For orientation: MTD means the largest dose that counted as tolerated.

The subject of series [1] is CCRF-CEM (CEM) cells. Kind of series: MTT-based cytotoxicity assay, CEM. Type of series: cell-based, human. The conditions noted are these: Homo sapiens, CCRF-CEM, read-out: IC50 CEM (HTL), CEM human T-lymphoblastoid, MTT. An excerpt: (§1) A second evaluation of the cytotoxicity of the acid labile, lipophilic molecular conjugates was undertaken.
(§2) These lines included a uterine sarcoma line, MES-SA, and its doxorubicin-resistant subline, MES-SA/Dx5. See W. G. Harker, F. R MacKintosh, and B. I. Sikic. Development and characterization of a human sarcoma cell line, MES-SA, sensitive to multiple drugs. Cancer Research 43: 4943-4950 (1983); W. G. Harker and B. I. Sikic. Multidrug (pleiotropic) resistance in doxorubicin-selected variants of the human sarcoma cell line MES-SA. Cancer Research 45: 4091 4096 (1985).
The second set of cells tested, CCRF-CEM or simply CEM, were derived from the blood of a patient with acute lymphoblastic leukemia. G. E. Foley, H. Lazarus, S. Farber, B. G. Uzman, B. A. Boone, and R E. McCarthy. Continuous culture of human lymphoblasts from peripheral blood of a child with acute leukemia. Cancer 18: 522-529 (1965). The subline CEM/VLB100 was developed to be resistant to up to vinblastine at 100 ng/ml. W. T. Beck, T. J. Mueller, and L. R. Tanzer. Altered surface membrane glycoproteins in Vinca alkaloid-resistant human leukemic lymphoblasts. Cancer Research 39: 2070-2076 (1979). Drug resistance is achieved by overexpression of the MDR1 gene. Resistance in the CEM subline designated CEM/VM-1-5, however, is “atypical.” M. K. Danks, J. C. Yalowich, and W. T. Beck. Atypical multiple drug resistance in a human leukemic cell line selected for resistance to teniposide (VM-26). Cancer Research 47: 1297-1301 (1987). The classes of drugs included in the “classic” multiple drug resistance phenotype are Vinca alkaloids, anthracyclines, epipodophyllotoxins and antibiotics. However, CEM/VM-1-5 cells retain sensitivity to the Vinca alkaloids despite resistance and cross-resistance to etoposide, anthracyclines and mitoxantrone. Danks, M. K.; Schmidt, C. A.; Cirtain, M. C.; Suttle, D. P.; Beck, W. T., Altered catalytic activity of and DNA cleavage by DNA topoisomerase II from human leukemic cells selected for resistance to VM-26. Biochemistry 1988, 27, 8861-8869. Resistance in CEM/VM-1-5 cells is effected by over expression of the […]. CEM, CEM/VLB100 and CEM/VM-1-5 cells were obtained from Dr. WT Beck, University of Illinois at Chicago.
Background: Formazan colour is commonly taken as a measure of viable cells.

Series [2] can be described thus: Estimation of maximum tolerated dose (MTD) in the mouse. The conditions noted are these: in vivo, iv, mice, in lipid emulsion (INTRALIPID), survival for 30 day observation period. On the procedure: Stock solutions of ART 198 and 273 and their respective acid labile, lipophilic molecular conjugates (ART 489 and ART 488, respectively) were prepared in ethanol and then diluted into a lipid emulsion (INTRALIPID®, 20% Soybean Oil, 1.2% egg yolk phospholipids, 2.25% glycerin and water) and injected intravenously into mice at various doses in milligrams per kilogram. The animals were observed daily for signs of toxicity and/or death for a period of 30 days. The MTD was defined as survival of the dosed mice for the full 30 day observation period.

In series [3] the test system is MES-SA uterine sarcoma line. Nature of the series: MTT-based cytotoxicity assay, MES-SA. It is filed as cell-based, human. The conditions noted are these: Homo sapiens, MES-SA, read-out: IC50 MESSA (Hs).
Description: as §1, §2
MES-SA/Dx5 cells express high levels of ABCB1 (MDR1) mRNA and its gene product, the P-glycoprotein. MES-SA and MES-SA/Dx5 were purchased from the American Type Culture Collection (ATCC, Manassas, Va.).

For the molecule `COC(=O)[C@@]12OC[C@]34[C@H]([C@@H](O)[C@@H]1O)[C@@]1(C)CC(=O)C(O)=C(C)[C@@H]1C[C@H]3OC(=O)C(OC(=O)CC1(O)CCCCC1)[C@@H]24` (stereo partly drawn) [ART 198], the figures for the IC50 in series [1] and in series [3] were 113 ± 53 nM and 47.5 ± 11 nM, respectively. For the same molecule, in series [2], the MTD at 30 days was 4 mg/kg.

Turning to `CCCCCCCCCCCCCCCC1OCC(COC(=O)O[C@@H]2C(=O)C=C(C)[C@@H]3C[C@H]4OC(=O)C(OC(=O)CC(O)(C(C)C)C(C)C)C5[C@@H](C)[C@@H](O)[C@@]6(O)OC[C@@]54C6[C@@]23C)O1` (stereo partly drawn) [ART 488], the results for the IC50 in series [1] and in series [3] were 4 nM and 1.5 ± 0.7 nM, respectively. Also, the maximum tolerated dose (MTD) at 30 days in series [2] is 4 mg/kg.

For `CCCCCCCCCCCCCCCC1OCC(COC(=O)OC2=C(C)[C@@H]3C[C@H]4OC(=O)C(OC(=O)CC5(O)CCCCC5)[C@H]5[C@]6(C(=O)OC)OC[C@]45[C@H]([C@@H](O)[C@@H]6O)[C@@]3(C)CC2=O)O1` (stereo partly drawn) [ART 489], the IC50 in series [1] was determined as 21 ± 2 nM; in series [3], 5.5 ± 3.5 nM. Moreover, the maximal tolerated dose (MTD) at 30 days in series [2] was 3.1 mg/kg.
